This experiment has as its target human GPR40 (Homo sapiens, UniProt O14842). The experiment can be described thus: Inositol Phosphate Turnover (IP1) Assay 2. Format: cell-based. Also noted: expressed in transfected cells. As to conditions: HEK cells stably expressing human GPR40, Table 2, read-out: Human IP1. The protocol: Human and mouse GPR40 stable cell-lines were generated in CHO cells stably expressing NFAT BLA (Beta-lactamase). A human GPR40 stable cell-line was generated in HEK cells stably expressing the aequorin expressing reporter. The expression plasmids were transfected using lipofectamine (Life Technologies) following manufacturer's instructions. Stable cell-lines were generated following drug selection.
The assay is performed in 384-well format. HEK cells stably expressing human GPR40 are plated at 15,000 cells per well in growth medium (DMEM/10% fetal calf serum). Cell plates are then incubated 16 hours at 37 degrees in a 5% CO2 incubator.
Measurement of Inositol Phosphate Turnover (IP1) is performed using the CisBio IP-One kit (Part number 62IPAPEB). After the 16 hour incubation, the cells are washed with HEPES buffer and 10 ul of stimulation buffer (prepared as described in the kit) is added to each well. In a separate plate, compounds are diluted in DMSO (400-fold over the final concentration in the assay well) and 25 nl is acoustically transferred to the appropriate well in the assay cell plate. The plates are then incubated for 60 minutes at 37 degrees. 10 ul of detection buffer (also prepared as described in the IP-One kit) is added to each well and the plates are incubated for 60 minutes in the dark. The plates are then read in a Perkin Elmer EnVision or equivalent reader able to measure FRET.

human GPR40, sequence (O14842 whole entry): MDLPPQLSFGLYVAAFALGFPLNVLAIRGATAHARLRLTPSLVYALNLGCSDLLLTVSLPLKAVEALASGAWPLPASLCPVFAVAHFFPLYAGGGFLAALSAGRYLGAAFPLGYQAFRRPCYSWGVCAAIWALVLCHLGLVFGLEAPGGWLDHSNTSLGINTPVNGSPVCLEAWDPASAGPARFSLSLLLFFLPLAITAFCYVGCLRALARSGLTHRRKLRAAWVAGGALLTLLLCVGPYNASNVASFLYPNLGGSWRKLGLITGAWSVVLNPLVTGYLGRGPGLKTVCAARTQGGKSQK

For `COc1ccc(F)c(-c2ccc(C3CCc4ccc(C(CC(=O)O)C5CC5)cc4O3)cc2C2=CCCC2(C)C)c1` (single isomer, unassigned) [Example 101d], the EC50 worked out at 90 nM.

Consider `COc1ccc(F)c(-c2cnc(C3CCc4ccc([C@H](C5CC5)[C@H](C)C(=O)O)cc4O3)c(F)c2)c1` (single isomer, unassigned) [Example 105a], for which the EC50 stood at 0.82 nM.

Turning to `COc1ccc(F)c(-c2cnc(C3CCc4ccc([C@H](C5CC5)[C@H](C)C(=O)O)cc4O3)c(F)c2)c1` (single isomer, unassigned) [Example 105b], the EC50 was determined as 0.79 nM.

Consider `COc1ccc(F)c(-c2cnc(C3CCc4ccc([C@H](C5CC5)[C@H](C)C(=O)O)cc4O3)cc2OC)c1` (single isomer, unassigned) [Example 108a], for which the EC50 turned out to be 263 nM.

As for `COc1ccc(F)c(-c2cnc(C3CCc4ccc([C@H](C5CC5)[C@H](C)C(=O)O)cc4O3)cc2OC)c1` (single isomer, unassigned) [Example 108b], the EC50 amounted to 5.8 nM.

In the case of `COc1cc(-c2ccc(C3CCc4ccc([C@H](C5CC5)[C@H](C)C(=O)O)cc4O3)c(F)c2)c(F)cn1` (single isomer, unassigned) [Example 109a], the EC50 came to 0.17 nM.

As for `COc1cc(-c2ccc(C3CCc4ccc([C@H](C5CC5)[C@H](C)C(=O)O)cc4O3)c(F)c2)c(F)cn1` (single isomer, unassigned) [Example 109b], the EC50 was found to be 1.2 nM.

In the case of `COc1cc(-c2cnc(C3CCc4ccc([C@H](C5CC5)[C@H](C)C(=O)O)cc4O3)c(F)c2)c(F)cn1` (single isomer, unassigned) [Example 110a], the EC50 came out at 6.8 nM.

On to `COc1cc(-c2cnc(C3CCc4ccc([C@H](C5CC5)[C@H](C)C(=O)O)cc4O3)c(F)c2)c(F)cn1` (single isomer, unassigned) [Example 110b], for which the EC50 turned out to be 1.6 nM.

Regarding `COc1ccc(F)c(-c2ccc(C3CCc4ccc([C@H](C5CC5)[C@H](C)C(=O)O)cc4O3)nc2C(F)(F)F)c1` (single isomer, unassigned) [Example 111a], the EC50 amounted to 6 nM.

Regarding `COc1ccc(F)c(-c2ccc(C3CCc4ccc([C@H](C5CC5)[C@H](C)C(=O)O)cc4O3)nc2C(F)(F)F)c1` (single isomer, unassigned) [Example 111b], the EC50 is 25 nM.

`COc1cc(-c2ccc(C3CCc4ccc([C@H](C5CC5)[C@H](C)C(=O)O)cc4O3)nc2)c(F)cn1` (single isomer, unassigned) [Example 112a]: the EC50 was 0.17 nM.

For the molecule `COc1cc(-c2ccc(C3CCc4ccc([C@H](C5CC5)[C@H](C)C(=O)O)cc4O3)nc2)c(F)cn1` (single isomer, unassigned) [Example 112b], the EC50 turned out to be 0.92 nM.

On to `COc1ccc(F)c(-c2cc(F)c(C3CCc4ccc([C@H](C5CC5)[C@H](C)C(=O)O)cc4O3)nc2C)c1` (single isomer, unassigned) [Example 113a], for which the EC50 came out at 3.9 nM.

As for `COc1ccc(F)c(-c2cc(F)c(C3CCc4ccc([C@H](C5CC5)[C@H](C)C(=O)O)cc4O3)nc2C)c1` (single isomer, unassigned) [Example 113b], the EC50 was 14 nM.

Regarding `COc1ccc(F)c(-c2cnc(C3CCc4ccc([C@H](C5CC5)[C@H](C)C(=O)O)cc4O3)c(C)c2)c1` (single isomer, unassigned) [Example 115a], the EC50 turned out to be 4.2 nM.

Regarding `COc1ccc(F)c(-c2cnc(C3CCc4ccc([C@H](C5CC5)[C@H](C)C(=O)O)cc4O3)c(C)c2)c1` (single isomer, unassigned) [Example 115b], the EC50 stood at 17.4 nM.

On to `COc1cc(-c2ccc(C3CCc4ccc([C@H](C5CC5)[C@H](C)C(=O)O)cc4O3)cc2)c(F)cn1` (single isomer, unassigned) [Example 117a], for which the EC50 is 0.89 nM.

With `COc1cc(-c2ccc(C3CCc4ccc([C@H](C5CC5)[C@H](C)C(=O)O)cc4O3)cc2)c(F)cn1` (single isomer, unassigned) [Example 117b], the EC50 stood at 0.17 nM.

Take `COc1cc(-c2ccc(C3CCc4ccc([C@H](C5CC5)[C@H](C)C(=O)O)cc4O3)cc2)ccn1` (single isomer, unassigned) [Example 118a]: the EC50 stood at 1.6 nM.

For `COc1cc(-c2ccc(C3CCc4ccc([C@H](C5CC5)[C@H](C)C(=O)O)cc4O3)cc2)ccn1` (single isomer, unassigned) [Example 118b], the EC50 was determined as 5.9 nM.

Regarding `COc1cc(-c2ccc(C3CCc4ccc([C@H](C5CC5)[C@H](C)C(=O)O)cc4O3)nc2C)ccn1` (single isomer, unassigned) [Example 119a], the EC50 was 4.1 nM.

As for `COc1cc(-c2ccc(C3CCc4ccc([C@H](C5CC5)[C@H](C)C(=O)O)cc4O3)nc2C)ccn1` (single isomer, unassigned) [Example 119b], the EC50 was 7.8 nM.

For the molecule `COc1cc(-c2ccc(C3CCc4ccc([C@H](C5CC5)[C@H](C)C(=O)O)cc4O3)nc2)ccn1` (single isomer, unassigned) [Example 120a], the EC50 amounted to 4.4 nM.

`COc1cc(-c2ccc(C3CCc4ccc([C@H](C5CC5)[C@H](C)C(=O)O)cc4O3)nc2)ccn1` (single isomer, unassigned) [Example 120b]: the EC50 was found to be 1.9 nM.

Turning to `COc1ccc(F)c(-c2ccc(C3CCc4ccc([C@@H](CC(=O)O)C5CC5)cc4O3)cn2)c1` (single isomer, unassigned) [Example 122a], the EC50 came out at 88 nM.

With `COc1ccc(F)c(-c2ccc(C3CCc4ccc([C@@H](CC(=O)O)C5CC5)cc4O3)cn2)c1` (single isomer, unassigned) [Example 122b], the EC50 came out at 244 nM.

In the case of `COc1ccc(F)c(-c2cnc(C3CCc4ccc([C@H](C5CC5)C(C)C(=O)O)cc4O3)nc2)c1` (single isomer, unassigned) [Example 124a], the EC50 is 51 nM.

On to `COc1ccc(F)c(-c2cnc(C3CCc4ccc([C@H](C5CC5)C(C)C(=O)O)cc4O3)nc2)c1` (single isomer, unassigned) [Example 124b], for which the EC50 came out at 70 nM.

As for `COc1ccc(F)c(-c2ccc(C3CCc4ccc([C@@H](CC(=O)O)C5CC5)cc4O3)cc2C(OC)C(C)(C)C)c1` (single isomer, unassigned) [Example 125a], the EC50 was found to be 7.3 nM.

Consider `COc1ccc(F)c(-c2ccc(C3CCc4ccc([C@@H](CC(=O)O)C5CC5)cc4O3)cc2C(OC)C(C)(C)C)c1` (single isomer, unassigned) [Example 125b], for which the EC50 is 8.6 nM.

Consider `COc1ccc(F)c(-c2ccc(C3CCc4ccc([C@@H](CC(=O)O)C5CC5)cc4O3)cc2C(OC)C(C)(C)C)c1` (single isomer, unassigned) [Example 125c], for which the EC50 came to 235 nM.

Regarding `COc1ccc(F)c(-c2ccc(C3CCc4ccc([C@@H](CC(=O)O)C5CC5)cc4O3)cc2C(OC)C(C)(C)C)c1` (single isomer, unassigned) [Example 125d], the EC50 is 256 nM.

As for `COc1ccc(F)c(-c2ccc(C3CCc4ccc([C@H](C5CC5)[C@H](C)C(=O)O)cc4O3)nc2C(OC)C(C)(C)C)c1` (single isomer, unassigned) [Example 135a], the EC50 was found to be 0.8 nM.

Take `COc1ccc(F)c(-c2ccc(C3CCc4ccc([C@H](C5CC5)[C@H](C)C(=O)O)cc4O3)nc2C(OC)C(C)(C)C)c1` (single isomer, unassigned) [Example 135b]: the EC50 was 21 nM.

The record behind these values is US9840512B2, “Antidiabetic bicyclic compounds” (Merck Sharp & Dohme Corp., priority 2013, dated 2017).
